Data reported in patent US7981438B2, “Use of α-mangostin as a mosquito larvicide” (Wisconsin Alumni Research Foundation, priority 2007, dated 2011).
Structures can show the parent of a compound that is named as a salt.

Legend:
[1] = system: mosquito larvae; experiment: toxicity assessment (larval mortality, Probit LD50) in mosquito larvae; type: in vivo; conditions: for LD50 in 4th instar (ppm) / LD50 (uM) in 4th instar: 4th instar larvae
Protocol: Compound was tested at concentrations within the range of 0.65-25.00 μM. Each assay included 60 larvae (1st instar or 4th instar) in 60 ml ddH2O containing either compound or control agent, mortality was recorded until 90% adult emerge rate. The percentage of mortality was transformed into Probit value and plotted against concentration to determine the LD50 value. Each assay was repeated at least three times with different batches of larvae. The mean and standard deviation values are listed above. ND=not determined due to very low mortality.
Compounds were tested at concentrations within the range of 0.65-25.00 μM. Each assay included 60 larvae (1st instar or 4th instar) in 60 ml ddH2O containing either compound or control agent. Mortality was recorded until 90% adult emerge rate. The percentage of mortality was transformed into Probit value and plotted against concentrations to determine the LD50 value. Each assay was repeated at least three times with different batches of larvae.

[2] = system: mosquito 4th instar larvae; experiment: neutral lipid levels in the midgut of 4th instar larvae (Red Oil O staining); type: in vivo
Protocol: The newly molted 4th instar larvae were treated with DMSO (the negative control), 25 μM SCPI-1 (the positive control), and 10 μM α-mangostin. The midgut tissue was dissected out at the indicated point in time after treatment initiation. The dissected treated midgut tissue was stained with Red Oil O for neutral lipids in situ.

[3] = system: complement C3; conditions: compared with phytoestrogens; FIG. 5, Hopert et al. 1998; cited from earlier work
[4] = molecular target: T1, recombinant AeSCP-2 (Aedes aegypti, UniProt Q86PR3); experiment: in vitro competition binding assay, NBD-cholesterol binding to AeSCP-2; design: species or system mosquito; conditions: at 0.1 mM concentration
T1 sequence (Q86PR3 1-110): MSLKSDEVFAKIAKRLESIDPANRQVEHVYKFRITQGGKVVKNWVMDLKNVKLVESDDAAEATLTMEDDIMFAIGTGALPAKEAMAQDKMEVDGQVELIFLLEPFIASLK
Protocol: At 0.1 mM concentration, α-mangostin decreased NBD-cholesterol binding to AeSCP-2 by 23-29%. […] Specifically, FIG. 1 illustrates the inhibitory effect of α-mangostin on NBD-cholesterol binding to recombinant AeSCP-2. RFU=relative NBD-cholesterol fluorescent unit normalized with NBD-cholesterol background readings. The assays that were used included 5 μM NBD-cholesterol+5 uM AeSCP-2+increasing concentrations of α-mangostin in […] potassium phosphate buffer (pH 7.4).

[5] = 1st instar larvae, same LD50 expressed in ppm
[6] = 1st instar larvae, tested 0.65-25.00 μM, mean ± SD
[7] = tested 0.65-25.00 μM, mean ± SD

Row | Molecule | LD50 in 1st instar (ppm) [1, 5] [ppm] | LD50 (uM) in 1st instar [1, 6] [µM] | LD50 in 4th instar (ppm) ([1]; same LD50 expressed in ppm) | LD50 (uM) in 4th instar [1, 7] [µM] | fraction of midgut neutral lipids depleted ([2]; 25 μM SCPI-1, 24 hour-old 4th instar larvae) | LD50 (uM) in 1st instar ([1]; mosquito, in vivo) [µM] | LD50 in 1st instar (ppm) ([1]; mosquito, in vivo) | reproductive side effects in mammals, measured by formation of complement C3 [3] | decrease of NBD-cholesterol binding to AeSCP-2 [4] | neutral lipids in the midgut ([2]; 10 μM α-mangostin, after 24 hours treatment, 4th instar larvae)
1 | CC(=O)Nc1ccc(Nc2nc(-c3ccc(Cl)c(Cl)c3)cs2)cc1 [SCPI-1, N-(4-{[4-(3,4-dichlorophenyl)-1,3-thiazol-2-yl]amino}phenyl)acetamide hydrobromide, reference compound] | 1.93 | 4.21 ± 0.38 | (or, 11.04 ppm) | 24.04 ± 4.16 | about ½ |  |  |  |  | 
2 | COc1c2c(c(CC=C(C)C)c3oc(=O)c(-c4ccc(O)cc4)c(O)c13)OC(C)(C)C=C2 [lonchocarpic acid] | 5.21 | 11.99 ± 1.93 |  |  |  |  |  |  |  | 
3 | COc1ccc(-c2cc(=O)c3c(O)cc(O)c(-c4cc(-c5cc(=O)c6c(O)cc(O)cc6o5)ccc4OC)c3o2)cc1 [isoginkgetin] |  |  |  |  |  | 11.29 ± 3.00 | 6.60 |  |  | 
4 | COc1c(O)cc2oc3cc(O)c(CC=C(C)C)c(O)c3c(=O)c2c1CC=C(C)C [α-mangostin, 3,6,8-Trihydroxy-2-methoxy-1,7-bis(3-methylbut-2-enyl)xanthen-9-one] | 1.12 | 2.73 ± 2.46 | (or, 4.18 ppm) | 10.18 ± 1.49 |  |  |  | does not induce reproductive side effects | 23-29% | scant amounts of neutral lipids
5 | obtusauione | 1.62 | 6.36 ± 1.70 |  |  |  |  |  |  |  | 
